Laboratory results: the NIST ThermoML archive (doi:10.1021/acs.jced.7b00335)
Numbers after ± are expanded uncertainties.

Assay: xn = mol fraction of the nth substance listed
Details: 100 kPa, Liquid; for viscosity: Concentric cylinders viscometry; for mass density: Vibrating tube method

O=Cc1ccccc1 [benzaldehyde] + CC(C)O
Details | mass density [kg/m3] | viscosity [mPa·s]
293.15 K, x1 = 0.0809 | 809.6 ± 1 | 2.11 ± 0.09
293.15 K, x1 = 0.1596 | 830.7 ± 1 | 1.86 ± 0.08
293.15 K, x1 = 0.24 | 852.5 ± 1 | 1.675 ± 0.068
293.15 K, x1 = 0.3492 | 882.3 ± 1 | 1.499 ± 0.061
293.15 K, x1 = 0.4399 | 906.4 ± 1 | 1.42 ± 0.06
293.15 K, x1 = 0.5693 | 940.8 ± 1 | 1.402 ± 0.057
293.15 K, x1 = 0.6495 | 962.2 ± 1 | 1.414 ± 0.057
293.15 K, x1 = 0.7399 | 986.2 ± 1 | 1.434 ± 0.058
293.15 K, x1 = 0.8498 | 1012.8 ± 1 | 1.47 ± 0.06
293.15 K, x1 = 0.9399 | 1033.3 ± 1 | 1.502 ± 0.061
293.15 K, x1 = 1 | 1046.3 ± 1 | 1.52 ± 0.06
298.15 K, x1 = 0.0809 | 804.3 ± 1 | 1.82 ± 0.07
298.15 K, x1 = 0.1596 | 826.4 ± 1 | 1.63 ± 0.07
298.15 K, x1 = 0.24 | 848.2 ± 1 | 1.47 ± 0.06
298.15 K, x1 = 0.3492 | 877.9 ± 1 | 1.342 ± 0.054
298.15 K, x1 = 0.4399 | 901.9 ± 1 | 1.296 ± 0.052
298.15 K, x1 = 0.5693 | 936.2 ± 1 | 1.284 ± 0.052
298.15 K, x1 = 0.6495 | 957.6 ± 1 | 1.298 ± 0.053
298.15 K, x1 = 0.7399 | 981.7 ± 1 | 1.318 ± 0.054
298.15 K, x1 = 0.8498 | 1008 ± 1 | 1.354 ± 0.055
298.15 K, x1 = 0.9399 | 1029 ± 1 | 1.385 ± 0.056
298.15 K, x1 = 1 | 1041.7 ± 1 | 1.41 ± 0.06
303.15 K, x1 = 0.0809 | 799.9 ± 1 | 1.59 ± 0.06
303.15 K, x1 = 0.1596 | 821.8 ± 1 | 1.43 ± 0.06
303.15 K, x1 = 0.24 | 843.7 ± 1 | 1.33 ± 0.05
303.15 K, x1 = 0.3492 | 873.4 ± 1 | 1.233 ± 0.05
303.15 K, x1 = 0.4399 | 897.4 ± 1 | 1.197 ± 0.049
303.15 K, x1 = 0.5693 | 931.7 ± 1 | 1.187 ± 0.048
303.15 K, x1 = 0.6495 | 953.1 ± 1 | 1.196 ± 0.049
303.15 K, x1 = 0.7399 | 976.7 ± 1 | 1.216 ± 0.049
303.15 K, x1 = 0.8498 | 1004.1 ± 1 | 1.252 ± 0.051
303.15 K, x1 = 0.9399 | 1024.1 ± 1 | 1.286 ± 0.052
303.15 K, x1 = 1 | 1037.1 ± 1 | 1.31 ± 0.05
308.15 K, x1 = 0.0809 | 795.6 ± 1 | 1.41 ± 0.06
308.15 K, x1 = 0.1596 | 817.6 ± 1 | 1.29 ± 0.05
308.15 K, x1 = 0.24 | 839.2 ± 1 | 1.2 ± 0.05
308.15 K, x1 = 0.3492 | 868.8 ± 1 | 1.126 ± 0.046
308.15 K, x1 = 0.4399 | 892.9 ± 1 | 1.1 ± 0.04
308.15 K, x1 = 0.5693 | 927.2 ± 1 | 1.098 ± 0.045
308.15 K, x1 = 0.6495 | 948.6 ± 1 | 1.109 ± 0.045
308.15 K, x1 = 0.7399 | 972.6 ± 1 | 1.131 ± 0.046
308.15 K, x1 = 0.8498 | 999.3 ± 1 | 1.163 ± 0.047
308.15 K, x1 = 0.9399 | 1019.7 ± 1 | 1.197 ± 0.049
308.15 K, x1 = 1 | 1032.4 ± 1 | 1.22 ± 0.05
313.15 K, x1 = 0.0809 | 791 ± 1 | 1.23 ± 0.05
313.15 K, x1 = 0.1596 | 813 ± 1 | 1.14 ± 0.05
313.15 K, x1 = 0.24 | 834.8 ± 1 | 1.08 ± 0.04
313.15 K, x1 = 0.3492 | 864.4 ± 1 | 1.03 ± 0.04
313.15 K, x1 = 0.4399 | 888.3 ± 1 | 1.011 ± 0.041
313.15 K, x1 = 0.5693 | 922.6 ± 1 | 1.018 ± 0.041
313.15 K, x1 = 0.6495 | 944 ± 1 | 1.032 ± 0.042
313.15 K, x1 = 0.7399 | 967 ± 1 | 1.051 ± 0.043
313.15 K, x1 = 0.8498 | 994.1 ± 1 | 1.093 ± 0.044
313.15 K, x1 = 0.9399 | 1014.6 ± 1 | 1.124 ± 0.046
313.15 K, x1 = 1 | 1027.9 ± 1 | 1.15 ± 0.05
318.15 K, x1 = 0.0809 | 786.7 ± 1 | 1.08 ± 0.04
318.15 K, x1 = 0.1596 | 808.6 ± 1 | 1 ± 0.04
318.15 K, x1 = 0.24 | 830.3 ± 1 | 0.95 ± 0.04
318.15 K, x1 = 0.3492 | 859.8 ± 1 | 0.918 ± 0.037
318.15 K, x1 = 0.4399 | 883.7 ± 1 | 0.909 ± 0.037
318.15 K, x1 = 0.5693 | 918 ± 1 | 0.916 ± 0.037
318.15 K, x1 = 0.6495 | 939.4 ± 1 | 0.933 ± 0.038
318.15 K, x1 = 0.7399 | 963.2 ± 1 | 0.967 ± 0.039
318.15 K, x1 = 0.8498 | 989.7 ± 1 | 1.015 ± 0.041
318.15 K, x1 = 0.9399 | 1010.8 ± 1 | 1.058 ± 0.043
318.15 K, x1 = 1 | 1023.4 ± 1 | 1.09 ± 0.04
323.15 K, x1 = 0.0809 | 782 ± 1 | 0.97 ± 0.04
323.15 K, x1 = 0.1596 | 803.7 ± 1 | 0.913 ± 0.037
323.15 K, x1 = 0.24 | 825.6 ± 1 | 0.873 ± 0.036
323.15 K, x1 = 0.3492 | 855.1 ± 1 | 0.848 ± 0.035
323.15 K, x1 = 0.4399 | 879.1 ± 1 | 0.84 ± 0.03
323.15 K, x1 = 0.5693 | 913.4 ± 1 | 0.844 ± 0.034
323.15 K, x1 = 0.6495 | 934.9 ± 1 | 0.863 ± 0.035
323.15 K, x1 = 0.7399 | 958.9 ± 1 | 0.892 ± 0.036
323.15 K, x1 = 0.8498 | 985 ± 1 | 0.943 ± 0.038
323.15 K, x1 = 0.9399 | 1006 ± 1 | 0.991 ± 0.04
323.15 K, x1 = 1 | 1019.1 ± 1 | 1.03 ± 0.04
